Test results published in patent publication US6706663B2, “Herbicidal 3-heterocyclic substituted benzisothiazole and benzisoxazole compounds” (Wyeth, priority 2000, dated 2004).

Assays:
[1] = tested on: GLXMAW (Soybean, Williams); assay: Postemergence herbicidal evaluation; format: in vivo, Glycine max, (L.) Merr. cv Williams; details: postemergence
Method in brief: (§1)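 Seedlings grown about two weeks in flats, sprayed, then kept under standard greenhouse care. Rated visually 4–5 weeks after treatment on a 0–9 scale (stand, vigour, malformation, size, chlorosis, overall appearance) relative to untreated control; repeat tests averaged.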

GALAP (Galium aparine) = assay: Postemergence herbicidal evaluation; format: in vivo; details: postemergence
Method in brief: as §1

[2] = tested on: GLXMAW (Soybean, Williams); assay: Preemergence herbicidal evaluation; format: in vivo, Glycine max, (L.) Merr. cv Williams; details: rated 4-5 weeks after treatment
ZEAMX (Corn, Field) = assay: Preemergence herbicidal evaluation; format: in vivo, Zea mays, L.; details: rated 4-5 weeks after treatment
[3] = tested on: ECHCG (Echinochloa crus-galli); assay: Preemergence herbicidal evaluation; format: in vivo, (L.) Beau; details: rated 4-5 weeks after treatment
Method in brief: (§2)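 Scores (0–9) reflect visual comparison with control plants for stand, vigor, malformation, size and chlorosis. Seeds in potting soil received a post-planting spray of compound in aqueous acetone and grew in a greenhouse until assessment 4–5 weeks later.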

SETVI (Setaria viridis) [4] = assay: Preemergence herbicidal evaluation; format: in vivo, (L.) Beau; details: rated 4-5 weeks after treatment
Method in brief: as §2

SETVI (Setaria viridis) [5] = assay: Postemergence herbicidal evaluation; format: in vivo, (L.) Beau; details: postemergence
Method in brief: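 ~2-wk seedlings; spray 0.0040–1.000 kg/ha in 50/50 acetone/water + 0.5% TWEEN 20, 40 psi nozzle. Greenhouse hold; visual 0–9 rating vs control at 4–5 wk; multiple tests averaged.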

[6] = tested on: IPOHE (Ipomoea hederacea); assay: Preemergence herbicidal evaluation; format: in vivo, (L.) Jacq.; details: rated 4-5 weeks after treatment
[7] = tested on: MOOVA (Monochoria vaginalis); assay: Flooded paddy, preemergence weed control; format: in vivo, Presl.; details: rated 3-4 weeks after treatment, 0-9 rating scale
Method in brief: (§3)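 Seeds or propagating organs were sown in the top 0.5 cm of silt loam soil, flooded, and the water kept 1.5 to 3 cm above the soil surface throughout. Plants were grown in the greenhouse and rated visually on a 0-9 scale against a control.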

CYPIR (Cyperus iria) = assay: Flooded paddy, preemergence weed control; format: in vivo; details: rated 3-4 weeks after treatment, 0-9 rating scale
Method in brief: as §3

Row | Compound | GLXMAW herbicidal rating ([1]; rate 0.0320 kg/ha) | GLXMAW herbicidal rating ([1]; rate 0.0620 kg/ha) | GALAP herbicidal rating (GALAP (Galium aparine); rate 0.0320 kg/ha) | GALAP herbicidal rating (GALAP (Galium aparine); rate 0.0620 kg/ha) | Preemergence herbicidal rating GLXMAW ([2]; Rate 0.0620 kg/ha) | Preemergence herbicidal rating GLXMAW ([2]; Rate 0.1250 kg/ha) | Preemergence herbicidal rating GLXMAW ([2]; Rate 0.2500 kg/ha) | Preemergence herbicidal rating ZEAMX (ZEAMX (Corn, Field); Rate 0.0620 kg/ha) | Preemergence herbicidal rating ZEAMX (ZEAMX (Corn, Field); Rate 0.1250 kg/ha) | Preemergence herbicidal rating ZEAMX (ZEAMX (Corn, Field); Rate 0.2500 kg/ha) | Preemergence herbicidal rating ECHCG ([3]; Rate 0.0620 kg/ha) | Preemergence herbicidal rating ECHCG ([3]; Rate 0.1250 kg/ha) | Preemergence herbicidal rating ECHCG ([3]; Rate 0.2500 kg/ha) | Preemergence herbicidal rating SETVI (SETVI (Setaria viridis) [4]; Rate 0.0620 kg/ha) | Preemergence herbicidal rating SETVI (SETVI (Setaria viridis) [4]; Rate 0.1250 kg/ha) | Preemergence herbicidal rating SETVI (SETVI (Setaria viridis) [4]; Rate 0.2500 kg/ha) | SETVI herbicidal rating (SETVI (Setaria viridis) [5]; rate 0.0320 kg/ha) | SETVI herbicidal rating (SETVI (Setaria viridis) [5]; rate 0.0620 kg/ha) | Preemergence herbicidal rating IPOHE ([6]; Rate 0.0620 kg/ha) | Preemergence herbicidal rating IPOHE ([6]; Rate 0.1250 kg/ha) | also measured
1 | Cc1nn(-c2nsc3ccc(-n4c(=O)cc(C(F)(F)F)n(C)c4=O)cc23)c(C)c1C [Compound 49, 1-methyl-6-(trifluoromethyl)-3-[3-(3,4,5-trimethylpyrazol-1-yl)-1,2-benzisothiazol-5-yl]uracil] | 1.5 | 2.5 | 0.0 | 0.0 | 0.0 | 0.0 | 0.0 | 0.0 | 0.0 | 0.0 | 0.0 | 0.0 | 0.0 | 0.0 | 0.0 | 0.0 | 0.0 | 0.0 | 0.0 | 0.0 | Preemergence herbicidal rating IPOHE ([6]; Rate 0.2500 kg/ha): 0.0; herbicidal rating, MOOVA ([7]; rate 0.0320 kg/ha): 0.0; herbicidal rating, CYPIR (CYPIR (Cyperus iria); rate 0.0320 kg/ha): 0.0; herbicidal rating, CYPIR (CYPIR (Cyperus iria); rate 0.1250 kg/ha): 0.0
2 | C[C@@H]1C[C@H](C)OC(c2nsc3ccc(-n4c(=O)cc(C(F)(F)F)n(C)c4=O)cc23)O1 (stereo partly drawn) [Compound 50, 3-[3-[(4R,6S)-4,6-dimethyl-m-dioxan-2-yl]-1,2-benzisothiazol-5-yl]-1-methyl-6-(trifluoromethyl)uracil] | 7.5 | 7.5 | 3.0 | 8.0 | 7.5 | 9.0 | 8.0 | 9.0 | 9.0 | 9.0 | 9.0 | 9.0 | 9.0 | 9.0 | 9.0 | 9.0 | 9.0 | 9.0 | 8.0 | 7.5 | Preemergence herbicidal rating IPOHE ([6]; Rate 0.2500 kg/ha): 9.0; herbicidal rating, MOOVA ([7]; rate 0.0320 kg/ha): 9.0; herbicidal rating, MOOVA ([7]; rate 0.1250 kg/ha): 9.0; herbicidal rating, CYPIR (CYPIR (Cyperus iria); rate 0.0080 kg/ha): 0.0; herbicidal rating, CYPIR (CYPIR (Cyperus iria); rate 0.0320 kg/ha): 7.5; herbicidal rating, CYPIR (CYPIR (Cyperus iria); rate 0.1250 kg/ha): 8.0
3 | C[C@@H]1C[C@H](C)OC(c2nsc3ccc(-n4c(=O)cc(C(F)(F)F)n(C)c4=O)cc23)O1 (stereo partly drawn) [Compound 51, 3-[3-[(4R,6S)-4,6-dimethyl-m-dioxan-2-yl]-1,2-benzisothiazol-5-yl]-1-methyl-6-(trifluoromethyl)uracil] | 5.0 | 7.5 | 2.0 | 5.0 | 9.0 | 9.0 | 9.0 | 8.0 | 8.5 | 9.0 | 9.0 | 9.0 | 9.0 | 9.0 | 9.0 | 9.0 | 3.0 | 3.0 | 6.5 | 9.0 | Preemergence herbicidal rating IPOHE ([6]; Rate 0.2500 kg/ha): 9.0; herbicidal rating, MOOVA ([7]; rate 0.0320 kg/ha): 9.0; herbicidal rating, MOOVA ([7]; rate 0.1250 kg/ha): 9.0; herbicidal rating, CYPIR (CYPIR (Cyperus iria); rate 0.0080 kg/ha): 3.0; herbicidal rating, CYPIR (CYPIR (Cyperus iria); rate 0.0320 kg/ha): 8.0; herbicidal rating, CYPIR (CYPIR (Cyperus iria); rate 0.1250 kg/ha): 9.0
4 | Cn1c(C(F)(F)F)cc(=O)n(-c2ccc3snc(C4(C)OCCO4)c3c2)c1=O [Compound 54, 1-methyl-3-[3-(2-methyl-1,3-dioxolan-2-yl)-1,2-benzisothiazol-5-yl]-6-(trifluoromethyl)uracil] | 8.0 | 8.5 | 5.0 | 9.0 | 9.0 | 9.0 | 9.0 | 8.0 | 8.5 | 9.0 | 9.0 | 9.0 | 9.0 | 9.0 | 9.0 | 9.0 | 3.0 | 9.0 | 9.0 | 9.0 | GLXMAW herbicidal rating ([1]; rate 0.1250 kg/ha): 9.0; GALAP herbicidal rating (GALAP (Galium aparine); rate 0.1250 kg/ha): 9.0; SETVI herbicidal rating (SETVI (Setaria viridis) [5]; rate 0.1250 kg/ha): 8.0; Preemergence herbicidal rating IPOHE ([6]; Rate 0.2500 kg/ha): 9.0; herbicidal rating, MOOVA ([7]; rate 0.0320 kg/ha): 9.0; herbicidal rating, MOOVA ([7]; rate 0.1250 kg/ha): 9.0; herbicidal rating, CYPIR (CYPIR (Cyperus iria); rate 0.0080 kg/ha): 0.0; herbicidal rating, CYPIR (CYPIR (Cyperus iria); rate 0.0320 kg/ha): 7.5; herbicidal rating, CYPIR (CYPIR (Cyperus iria); rate 0.1250 kg/ha): 9.0
5 | CC1CC(C)(C)OC(c2nsc3ccc(-n4c(=O)cc(C(F)(F)F)n(C)c4=O)cc23)O1 (stereo not shown) [Compound 55, 1-methyl-6-(trifluoromethyl)-3-[3-(4,4,6-trimethyl-m-dioxan-2-yl)-1,2-benzisothiazol-5-yl]uracil] | 4.5 | 5.0 | 2.0 | 2.0 | 6.5 | 8.0 | 9.0 | 8.0 | 9.0 | 8.0 | 9.0 | 9.0 | 9.0 | 9.0 | 9.0 | 9.0 | 1.0 | 1.0 | 7.5 | 7.5 | Preemergence herbicidal rating IPOHE ([6]; Rate 0.2500 kg/ha): 8.0; herbicidal rating, MOOVA ([7]; rate 0.0320 kg/ha): 9.0; herbicidal rating, MOOVA ([7]; rate 0.1250 kg/ha): 9.0; herbicidal rating, CYPIR (CYPIR (Cyperus iria); rate 0.0080 kg/ha): 0.0; herbicidal rating, CYPIR (CYPIR (Cyperus iria); rate 0.0320 kg/ha): 6.0; herbicidal rating, CYPIR (CYPIR (Cyperus iria); rate 0.1250 kg/ha): 9.0
6 | CC1COC(c2nsc3ccc(-n4c(=O)cc(C(F)(F)F)n(C)c4=O)cc23)O1 (stereo not shown) [Compound 57, 1-methyl-3-[3-(4-methyl-1,3-dioxolan-2-yl)-1,2-benzisothiazol-5-yl]-6-(trifluoromethyl)uracil] | 7.0 | 8.5 | 6.0 | 9.0 | 9.0 | 9.0 | 9.0 | 7.5 | 8.0 | 9.0 | 9.0 | 9.0 | 9.0 | 9.0 | 9.0 | 9.0 | 4.0 | 9.0 | 9.0 | 9.0 | Preemergence herbicidal rating IPOHE ([6]; Rate 0.2500 kg/ha): 9.0; herbicidal rating, MOOVA ([7]; rate 0.0320 kg/ha): 9.0; herbicidal rating, MOOVA ([7]; rate 0.1250 kg/ha): 9.0; herbicidal rating, CYPIR (CYPIR (Cyperus iria); rate 0.0080 kg/ha): 0.0; herbicidal rating, CYPIR (CYPIR (Cyperus iria); rate 0.0320 kg/ha): 7.5; herbicidal rating, CYPIR (CYPIR (Cyperus iria); rate 0.1250 kg/ha): 9.0
